Assays:
[1] = test system: patient-derived B-ALL cells (BLQ5, LAX56 and LAX7R); test: Viability of B-ALL cells by annexin V/DAPI flow cytometry, day 3; format: cell-based, human; conditions: all three B-ALL cells (BLQ5, LAX56, LAX7R), 3 days
Experimental: (§1) Lentivirally green fluorescence protein (GFP) labeled patient-derived B-ALL cells (LAX56, BLQ5, LAX7R) or mature B cell lines 3301015 and 5680001 were plated on irradiated murine stromal OP9 cells and treated with four compounds optimized for Artemis inhibition (827171, 827032, 826941, 825226) (provided by Curia Global Inc., as part of the NCI NExT Program). These compounds ranged in KD binding affinity to Artemis from 20 to 150 nM. […] Proliferation was determined by measuring the green fluorescence intensity per image (9 images were captured per well) by Incucyte every 8 h for 3 days. Raw values were normalized to the zero-time DMSO control. On day 3, viability of the treated cells was determined by annexin V/DAPI staining via flow cytometry.
On day three, primary B-ALL cells were collected and used for flow cytometry analysis with PE Annexin V and DAPI to measure % viability (PE Annexin V-/DAPI-). The statistical analysis of viability differences is compared to DMSO control: ns: non-significant; *p < 0.05; **p < 0.001; ***p < 0.0001, one-way ANOVA.

[2] = test system: Normal mature B cell lines 3301015 and 5680001; test: Viability of normal mature B cell lines by annexin V/DAPI flow cytometry, day 3; format: cell-based, human; conditions: one or both B-cell lines, 1–20 μM, 3 days
Experimental: Normal mature human B cell lines, immortalized lymphoblastoid cell lines 3301015 and 5680001, were generated using EBV-transformation of peripheral blood from patients with no hematopoietic abnormalities.
as §1
FIGURE 4 Artemis inhibitors and DNA-PK inhibitors effect on viability of normal mature B cell lines. […] On day three, mature B cells were collected and used for flow cytometry analysis with PE Annexin V and DAPI to measure % viability (PE Annexin V-/DAPI-). The % viability (Ann V-/DAPI-) is depicted. […]

[3] = test system: Primary patient-derived B-ALL cells (BLQ5, LAX56, and LAX7R); test: Proliferation of GFP-labeled B-ALL cells on OP9 cells (Incucyte green fluorescence); format: cell-based, human
Experimental: as §1
Based on these viability studies, we next tested the compounds for their effect on proliferation. […] Ideally, normal B-cell lines would continue to proliferate upon Artemis inhibition and only B-ALL cell lines would be inhibited due to chromosome breaks. […] Increasing green fluorescence intensity is indicative of proliferation as measured by Incucyte every 8 h. […]
Primary B-ALL cells (BLQ5, LAX56, and LAX7R) were transduced with GFP, and 100,000 cells were plated in 24-well plates seeded with irradiated OP9 cells. […] Green fluorescence intensity was measured by Incucyte every 8 h. […]

[4] = test system: Mature B cell lines (3301015 and 5680001); test: Proliferation of GFP-labeled mature B cell lines on OP9 cells (Incucyte green fluorescence); format: cell-based, human
Experimental: as §1
Based on these viability studies, we next tested the compounds for their effect on proliferation. […] Ideally, normal B-cell lines would continue to proliferate upon Artemis inhibition and only B-ALL cell lines would be inhibited due to chromosome breaks. Primary patient-derived B-ALL cells (BLQ5, LAX56, and LAX7R) were transduced with GFP and 100,000 cells were plated in 24-well plates seeded with irradiated OP9 cells. Increasing green fluorescence intensity is indicative of proliferation as measured by Incucyte every 8 h. […] The mature B cell line proliferation is slow enough that it appears relatively flat in the proliferation assays, but the cells do increase in number (Supplementary Figure S2). Compared to B-ALL cells which grow as single cells (Supplementary Figure S3A–F), the mature B-cell lines grow in clusters and the measurement of total intensity per image is a potential caveat and may not capture this growth (Supplementary Figure S3G–J).
Mature B cell lines (3301015 and 5680001) were transduced with GFP, and 100,000 cells were plated in 24-well plates seeded with irradiated OP9 cells. […] Green fluorescence intensity was measured by Incucyte every 8 h. Raw values were normalized to the 0 h DMSO control. The dashed lines indicate the mean of the final time point measurements of the DMSO control for each mature B cell line.

[5] = molecular target: T1, purified full-length human Artemis with DNA-PKcs (Homo sapiens, UniProt Q96SD1); test: Biochemical Artemis catalytic activity assay (FAM hairpin DNA cleavage, fluorescence)
T1 construct: Artemis activity assay was developed using full length Artemis with DNA-PKcs; made in house
T1 sequence (Q96SD1 whole entry): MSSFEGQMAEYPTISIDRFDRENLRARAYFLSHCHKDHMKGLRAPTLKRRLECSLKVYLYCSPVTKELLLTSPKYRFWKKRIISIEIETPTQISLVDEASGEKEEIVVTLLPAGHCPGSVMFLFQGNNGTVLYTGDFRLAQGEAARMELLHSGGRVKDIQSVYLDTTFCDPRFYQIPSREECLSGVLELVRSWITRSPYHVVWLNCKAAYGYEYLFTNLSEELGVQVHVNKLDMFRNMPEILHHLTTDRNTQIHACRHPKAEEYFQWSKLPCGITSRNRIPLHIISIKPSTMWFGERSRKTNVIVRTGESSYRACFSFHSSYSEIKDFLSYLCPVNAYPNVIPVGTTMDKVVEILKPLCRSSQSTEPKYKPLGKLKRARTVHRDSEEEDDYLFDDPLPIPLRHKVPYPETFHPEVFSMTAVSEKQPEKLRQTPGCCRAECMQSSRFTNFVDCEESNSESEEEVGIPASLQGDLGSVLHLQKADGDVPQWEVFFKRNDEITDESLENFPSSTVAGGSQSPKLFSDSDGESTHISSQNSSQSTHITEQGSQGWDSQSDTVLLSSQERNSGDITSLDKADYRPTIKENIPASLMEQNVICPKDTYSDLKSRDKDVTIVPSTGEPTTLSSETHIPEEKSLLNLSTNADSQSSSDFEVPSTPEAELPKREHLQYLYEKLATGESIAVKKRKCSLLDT
T1 sequence (P78527 whole entry partner): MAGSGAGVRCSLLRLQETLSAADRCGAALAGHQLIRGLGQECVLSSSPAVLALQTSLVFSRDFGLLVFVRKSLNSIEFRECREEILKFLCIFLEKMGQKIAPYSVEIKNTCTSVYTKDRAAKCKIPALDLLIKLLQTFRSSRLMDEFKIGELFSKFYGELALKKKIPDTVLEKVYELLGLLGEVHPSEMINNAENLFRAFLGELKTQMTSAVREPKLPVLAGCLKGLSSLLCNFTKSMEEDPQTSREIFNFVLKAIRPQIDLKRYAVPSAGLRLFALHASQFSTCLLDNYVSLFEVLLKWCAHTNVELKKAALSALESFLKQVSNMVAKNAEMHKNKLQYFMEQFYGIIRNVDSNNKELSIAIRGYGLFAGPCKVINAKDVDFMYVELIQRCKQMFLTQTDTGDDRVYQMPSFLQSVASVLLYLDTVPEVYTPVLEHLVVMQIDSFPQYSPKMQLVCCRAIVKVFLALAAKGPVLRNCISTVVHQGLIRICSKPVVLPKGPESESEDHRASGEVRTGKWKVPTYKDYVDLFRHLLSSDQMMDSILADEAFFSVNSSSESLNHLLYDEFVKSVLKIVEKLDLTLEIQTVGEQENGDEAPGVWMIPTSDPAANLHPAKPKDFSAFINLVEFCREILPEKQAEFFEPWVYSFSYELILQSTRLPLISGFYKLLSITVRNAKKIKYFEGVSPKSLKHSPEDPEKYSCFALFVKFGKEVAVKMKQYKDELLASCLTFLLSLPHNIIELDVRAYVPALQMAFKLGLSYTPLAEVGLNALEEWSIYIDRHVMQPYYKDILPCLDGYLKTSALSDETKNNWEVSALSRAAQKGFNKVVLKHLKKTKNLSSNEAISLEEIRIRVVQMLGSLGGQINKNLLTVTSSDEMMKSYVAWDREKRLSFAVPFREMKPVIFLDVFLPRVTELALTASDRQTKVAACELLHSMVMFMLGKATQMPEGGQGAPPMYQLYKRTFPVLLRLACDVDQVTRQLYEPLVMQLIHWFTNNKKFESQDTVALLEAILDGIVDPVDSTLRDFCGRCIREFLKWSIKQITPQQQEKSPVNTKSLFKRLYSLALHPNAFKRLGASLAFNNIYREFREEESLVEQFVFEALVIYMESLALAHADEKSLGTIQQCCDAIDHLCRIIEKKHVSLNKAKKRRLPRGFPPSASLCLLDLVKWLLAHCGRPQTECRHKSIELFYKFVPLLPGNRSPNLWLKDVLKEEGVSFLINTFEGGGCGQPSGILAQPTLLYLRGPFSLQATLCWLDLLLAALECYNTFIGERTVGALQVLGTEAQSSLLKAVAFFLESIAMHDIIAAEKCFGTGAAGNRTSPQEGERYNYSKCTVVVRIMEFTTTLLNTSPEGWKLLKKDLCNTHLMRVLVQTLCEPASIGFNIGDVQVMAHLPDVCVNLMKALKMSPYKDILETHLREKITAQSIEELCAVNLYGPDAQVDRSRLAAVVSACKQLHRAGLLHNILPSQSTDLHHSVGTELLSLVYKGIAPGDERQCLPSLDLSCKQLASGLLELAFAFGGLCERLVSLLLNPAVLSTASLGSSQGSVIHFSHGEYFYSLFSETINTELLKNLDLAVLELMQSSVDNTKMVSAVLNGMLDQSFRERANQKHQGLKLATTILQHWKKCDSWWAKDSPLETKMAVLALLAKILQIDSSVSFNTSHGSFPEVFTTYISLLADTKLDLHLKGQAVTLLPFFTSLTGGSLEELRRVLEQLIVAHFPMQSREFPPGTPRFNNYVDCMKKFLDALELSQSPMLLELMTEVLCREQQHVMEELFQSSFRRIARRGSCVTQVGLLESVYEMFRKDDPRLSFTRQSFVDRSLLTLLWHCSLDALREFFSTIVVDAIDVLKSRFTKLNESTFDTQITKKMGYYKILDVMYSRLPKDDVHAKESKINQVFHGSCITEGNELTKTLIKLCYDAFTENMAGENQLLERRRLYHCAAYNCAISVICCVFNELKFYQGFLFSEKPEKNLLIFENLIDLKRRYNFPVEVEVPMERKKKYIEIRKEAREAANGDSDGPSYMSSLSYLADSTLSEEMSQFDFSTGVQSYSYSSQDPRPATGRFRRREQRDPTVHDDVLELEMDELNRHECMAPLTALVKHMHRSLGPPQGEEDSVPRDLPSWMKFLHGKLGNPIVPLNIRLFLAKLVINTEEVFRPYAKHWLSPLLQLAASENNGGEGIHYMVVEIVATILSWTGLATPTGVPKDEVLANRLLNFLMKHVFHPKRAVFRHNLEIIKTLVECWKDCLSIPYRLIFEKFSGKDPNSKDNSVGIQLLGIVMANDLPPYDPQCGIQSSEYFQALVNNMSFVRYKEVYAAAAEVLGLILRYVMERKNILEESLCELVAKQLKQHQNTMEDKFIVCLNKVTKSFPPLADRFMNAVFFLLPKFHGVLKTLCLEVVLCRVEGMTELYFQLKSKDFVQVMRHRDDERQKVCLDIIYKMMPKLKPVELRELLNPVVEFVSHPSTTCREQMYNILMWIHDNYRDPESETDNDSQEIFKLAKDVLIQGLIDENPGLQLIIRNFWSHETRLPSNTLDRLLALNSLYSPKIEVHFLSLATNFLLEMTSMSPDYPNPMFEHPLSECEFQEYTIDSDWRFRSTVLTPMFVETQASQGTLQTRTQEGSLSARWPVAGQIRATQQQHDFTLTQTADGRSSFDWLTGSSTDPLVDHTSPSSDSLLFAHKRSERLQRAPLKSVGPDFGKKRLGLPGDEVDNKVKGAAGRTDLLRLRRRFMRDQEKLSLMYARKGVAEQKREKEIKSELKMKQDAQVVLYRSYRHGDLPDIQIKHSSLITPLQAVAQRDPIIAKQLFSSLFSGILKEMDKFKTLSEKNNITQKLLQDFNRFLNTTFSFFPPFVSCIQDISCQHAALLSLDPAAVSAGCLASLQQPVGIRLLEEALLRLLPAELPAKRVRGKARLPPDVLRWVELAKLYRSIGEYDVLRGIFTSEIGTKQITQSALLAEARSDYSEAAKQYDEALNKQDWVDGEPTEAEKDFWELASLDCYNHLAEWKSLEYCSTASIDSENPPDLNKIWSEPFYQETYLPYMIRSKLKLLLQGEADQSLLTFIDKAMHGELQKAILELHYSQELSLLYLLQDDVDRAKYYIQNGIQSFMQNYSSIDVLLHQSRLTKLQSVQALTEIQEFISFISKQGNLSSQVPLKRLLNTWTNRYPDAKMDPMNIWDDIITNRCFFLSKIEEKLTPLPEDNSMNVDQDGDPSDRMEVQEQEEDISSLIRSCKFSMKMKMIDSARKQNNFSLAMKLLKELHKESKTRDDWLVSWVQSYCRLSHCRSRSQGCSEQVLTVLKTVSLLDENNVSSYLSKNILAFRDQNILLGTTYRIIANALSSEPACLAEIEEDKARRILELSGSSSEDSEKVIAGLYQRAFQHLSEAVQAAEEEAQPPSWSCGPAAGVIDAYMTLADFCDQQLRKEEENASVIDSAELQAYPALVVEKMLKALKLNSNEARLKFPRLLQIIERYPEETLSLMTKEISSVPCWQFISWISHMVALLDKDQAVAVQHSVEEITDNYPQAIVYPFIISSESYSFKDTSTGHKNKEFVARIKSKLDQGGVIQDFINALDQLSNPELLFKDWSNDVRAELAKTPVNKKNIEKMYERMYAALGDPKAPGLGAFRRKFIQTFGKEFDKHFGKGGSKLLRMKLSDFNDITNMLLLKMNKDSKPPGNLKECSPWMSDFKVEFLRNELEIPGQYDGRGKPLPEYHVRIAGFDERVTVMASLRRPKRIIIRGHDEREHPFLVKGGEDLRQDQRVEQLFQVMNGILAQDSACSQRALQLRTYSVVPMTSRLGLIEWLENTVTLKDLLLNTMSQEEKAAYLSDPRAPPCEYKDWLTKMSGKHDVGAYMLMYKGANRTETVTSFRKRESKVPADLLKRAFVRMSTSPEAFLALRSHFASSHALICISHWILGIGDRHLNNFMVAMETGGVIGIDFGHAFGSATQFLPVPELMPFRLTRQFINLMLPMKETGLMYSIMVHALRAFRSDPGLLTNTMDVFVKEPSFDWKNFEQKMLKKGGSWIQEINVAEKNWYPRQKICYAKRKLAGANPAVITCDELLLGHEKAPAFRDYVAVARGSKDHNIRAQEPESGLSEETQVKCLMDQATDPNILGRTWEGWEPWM
Experimental: Artemis activity assay was developed using full length Artemis with DNA-PKcs to generate a fluorescent signal from the cleavage of the 5′ 6-FAM modified end of hairpin DNA with a black-hole quencher (3-BHQ) on the 3’ end. The assay buffer used was 25 mM MOPS, pH 7.5, 10 mM MgCl2, 10 mM KCl, 10 μM ATP, 1 mM DTT, 0.05% (w/v) CHAPS with 5 nM FL-Artemis, 5 nM DNA-PKcs, and 200 nM DNA FAM hairpin substrate. The fluorescence signal was monitored kinetically on a Perkin Elmer Envision microplate reader with FITC filters (λ ex = 485 nm, λ em = 520 nm) with 1-min reads for 40 min.
We determined the specificity of the four Artemis inhibiting compounds using a biochemical Artemis activity assay which generates a fluorescent signal from the cleavage of the 5′ 6-FAM modified end of hairpin DNA with a black-hole quencher (3-BHQ) on the 3’ end.
Steps 1, 2, and 3 show the fluorescence assay for cutting of the DNA hairpin substrate by Artems:DNA-Kcs. Artemis activity assay was optimized for development of a fluorescent signal from the cleavage of the 6-FAM modified end of hairpin DNA (to release it from proximity to the BHQ quenching) and monitored kinetically on a Perkin Elmer Envision microplate reader with FITC filters (excitation wavelength = 485 nm, emission wavelength = 520 nm). […]

Row | Compound | viability (PE Annexin V-/DAPI-) compared to DMSO controls [1] | viability (PE Annexin V-/DAPI-) [2] | proliferation (normalized green fluorescence intensity) vs DMSO ([3]; B-ALL cell lines, 5 μM and 10 μM) | proliferation of the three B-ALL lines (Discussion summary) ([3]; three B-ALL lines, 827171 at 1, 5, and 10 µM) | proliferation (normalized green fluorescence intensity) vs DMSO ([4]; 3301015, 5 μM and 10 µM) | proliferation (normalized green fluorescence intensity) vs DMSO [4]; 5680001 | proliferation (normalized green fluorescence intensity) vs DMSO ([4]; 5680001, 1 or 5 μM) | IC50 ([5]; 5 nM FL-Artemis, 5 nM DNA-PKcs, 200 nM DNA FAM hairpin substrate, 10 μM ATP, 10-point concentration response) | %Inh at Max ([5]; percent inhibition at maximal tested concentration)
1 | Cc1cc2ncnn2cc1Nc1ncc2c(n1)n(C1CCOCC1)c(=O)n2C [AZD7648] | decrease in viability | decrease viability of one or both B-cell lines | inhibited the proliferation | little inhibition | suppressed proliferation | no significant decreases in proliferation | minor increase in proliferation |  | 
2 | COc1ccc([C@@H](O)c2cc(-c3ncnc4cc(N5CCOCC5)ccc34)c(F)cc2Cl)nn1 [M3814] |  |  |  |  |  |  |  | 3 nM | 90.2%

— paper PMC10111164, “Artemis inhibition as a therapeutic strategy for acute lymphoblastic leukemia” (Frontiers in Cell and Developmental Biology, 2023)
